Measurements reported in US9539322B2, “Method of enhancing an antitumor T cell response by administering an anti-IL-6 receptor antibody” (National University Corporation Hokkaido University, priority 2010, dated 2017).
Where a name gives a salt, the structure may show the parent alone.

Assays:
CD8^+ cells = assay: Growth ability of spleen CD8+ cells after anti-CD3 stimulation (3H incorporation test), CMC-1 tumor-bearing mice; type: in vivo, BALB/c mice; conditions: i.p. 30 days after CMC-1 inoculation (GEM; CY 60 mg/kg; 5-FU 120 mg/kg); spleen CD8+ cells after 48 hours; 60 hours immobilized anti-CD3 2 μg/ml; FIG. 3
Procedure: (§1) GEM was administered to the tumor-bearing mice 30 days after CMC-1 inoculation, and after 48 hours the absolute number of respective cell populations in the spleen were analyzed by flow cytometry. Cyclophosphamide (CY) (60 mg/kg), fluoro-5-uracil (5-FU) (120 mg/kg), or GEM was intraperitoneally administered to tumor-bearing mice 30 days after CMC-1 inoculation. After 48 hours, CD8^+ cells were isolated from the spleen, and the growth ability after 60 hours of stimulation with immobilized anti-CD3 antibody (2 μg/ml) was assessed by ^3H incorporation test.

immunosuppressive cells = assay: Flow cytometry of the absolute number of cell populations in the spleen of CMC-1 tumor-bearing mice; type: in vivo, BALB/c mice; conditions: tumor-bearing mice 30 days after CMC-1 inoculation; 48 hours after administration; FIG. 2
Procedure: as §1

CD8^+ T cells = assay: Tumor diameter with GEM and anti-CD8 antibody (CMC-1); proportion of OVA-specific CD8+ cytotoxic T cells (LLC-OVA); type: in vivo, BALB/c mice; C57BL6 mice; conditions: GEM 120 mg/kg i.p.; anti-CD8 antibody 250 μg i.v. every three days (CMC-1); OVA-specific CD8+ CTL in regional lymph nodes (LLC-OVA); FIG. 4, 5
Procedure: CMC-1 (2×10^6) was intradermally inoculated to BALB/c mice. From day 5 after inoculation, GEM (120 mg/kg) was intraperitoneally administered every week and anti-CD8 antibody (250 μg) was intravenously administered every three days. The tumor diameter was measured every two days. LLC-OVA (2×10^6) prepared by introducing the ovalbumin (OVA) gene into mouse lung cancer cell line LLC was intradermally inoculated to C57BL6 mice, and after five days GEM (120 mg/kg) was intraperitoneally administered. After nine days, the regional lymph nodes were collected and assessed by flow cytometry for the proportion of OVA-specific CD8^+ cytotoxic T cells.

[1] = system: methylcholanthrene-induced squamous cancer CMC-1; assay: Antitumor effect of GEM in CMC-1-inoculated mice (tumor growth); type: in vivo; conditions: CMC-1 intradermal in BALB/c mice; 120 mg/kg i.p. every week from day 5; FIG. 1
Procedure: Cell line of methylcholanthrene-induced squamous cancer CMC-1 (2×10^6 cells) was intradermally inoculated to BALB/c mice, and from day 5 after inoculation, GEM (Gemzar: gemcitabine hydrochloride) was intraperitoneally administered at 120 mg/kg every week. The tumor growth was measured every two days to evaluate the antitumor effect of GEM.

`O=c1[nH]cc(F)c(=O)[nH]1` [5-FU, fluoro-5-uracil] was tested, and the “growth-enhancing effect for CD8+ T cells” value (CD8^+ cells) was “not observed”.
`O=P1(N(CCCl)CCCl)NCCCO1` (stereo not drawn) [CY, Cyclophosphamide] was tested, and the “growth-enhancing effect for CD8+ T cells” value (CD8^+ cells) was “not observed”.
`Nc1ccn([C@@H]2O[C@H](CO)[C@@H](O)C2(F)F)c(=O)n1` [GEM, gemcitabine hydrochloride] was tested, and the “elimination of immunosuppressive cells in the spleen” value (immunosuppressive cells) was “eliminates immunosuppressive cells”, the “antitumor effect through CD8+ T cell activity” value (CD8^+ T cells) was “produces the antitumor effect by enhancing the activity of CD8^+ T cells” and the tumor growth-suppressive effect [1] was “tumor growth-suppressive effect”. For the same molecule, the “growth-enhancing effect for CD8+ T cells” value (CD8^+ cells) was “excellent growth-enhancing effect for CD8^+ T cells”.
